Assay results published in ChEMBL document CHEMBL1201862, “PubChem BioAssay data set” (2004).
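A five-concentration, 48-hour dose response in 96-well plates underlies each endpoint, interpolated linearly between surrounding concentrations. Here, GI50 denotes the concentration required for 50% inhibition of growth.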 The source made the active and inactive calls. No stated cut-off is given here; in the data, active = GI50 up to about 1.1 µM and inactive = higher.

Legend:
Experiment in all cases: NCI tumour cell line growth inhibition, 48 h
[1] = test system: 786-0
[2] = test system: A549
[3] = test system: ACHN
[4] = test system: BT-549
[5] = test system: CAKI-1
[6] = test system: CCRF-CEM
[7] = test system: COLO 205
[8] = test system: DU-145
[9] = test system: EKVX
[10] = test system: HCT-116
[11] = test system: HCT-15
[12] = test system: HL-60
[13] = test system: HOP-62
[14] = test system: Hs-578T
[15] = test system: IGROV-1
[16] = test system: K562
[17] = test system: KM12
[18] = test system: LOX IMVI
[19] = test system: M14
[20] = test system: MCF7
[21] = test system: MDA-MB-231
[22] = test system: MDA-MB-435
[23] = test system: MDA-N
[24] = test system: MOLT-4
[25] = test system: Malme-3M
[26] = test system: NCI-H23
[27] = test system: NCI-H460
[28] = test system: NCI-H522
[29] = test system: NCI/ADR-RES
[30] = test system: OVCAR-3
[31] = test system: OVCAR-4
[32] = test system: OVCAR-5
[33] = test system: OVCAR-8
[34] = test system: PC-3
[35] = test system: RPMI-8226
[36] = test system: RXF 393
[37] = test system: SF-268
[38] = test system: SF-295
[39] = test system: SK-MEL-28
[40] = test system: SK-MEL-5
[41] = test system: SK-OV-3
[42] = test system: SN12C
[43] = test system: SNB-19
[44] = test system: SNB-75
[45] = test system: SR
[46] = test system: T47D
[47] = test system: TK-10
[48] = test system: U-251
[49] = test system: UACC-257
[50] = test system: UACC-62
[51] = test system: UO-31
[52] = test system: A498
[53] = test system: HT-29
[54] = test system: NCI-H226
[55] = test system: SF-539
[56] = test system: SK-MEL-2
[57] = test system: SW-620

With `CCCCCCC(O)C(=O)OC1C2C(CC1(C)C)C(O)C13OC1C(O)C1(CO1)[C@@]23C` (some centres undefined) the GI50 [1] was 25.4 µM (inactive), the GI50 [2] was 28.1 µM (inactive) and the GI50 [3] was > 10 µM (inactive). For the same molecule, the GI50 [4] was 50.1 µM (inactive), the GI50 [5] was > 100 µM (inactive) and the GI50 [6] was 27.5 µM (inactive). The GI50 [7] was 49.2 µM (inactive), the GI50 [8] was > 100 µM (inactive) and the GI50 [9] was 54.5 µM (inactive). For the same molecule, the GI50 [10] was 47.4 µM (inactive), the GI50 [11] was 81.7 µM and the GI50 [12] was > 100 µM (inactive). The GI50 [13] was 58.7 µM (inactive), the GI50 [14] was 28.2 µM (inactive) and the GI50 [15] was 43 µM (inactive). For the same molecule, the GI50 [16] was 30.3 µM (inactive), the GI50 [17] was 47.6 µM (inactive) and the GI50 [18] was 19.2 µM (inactive). The GI50 [19] was 40.6 µM (inactive), the GI50 [20] was 36.4 µM (inactive) and the GI50 [21] was 48.6 µM (inactive). The GI50 [22] was 50.9 µM (inactive), the GI50 [23] was 45.4 µM (inactive) and the GI50 [24] was 16.1 µM (inactive). The GI50 [25] was > 100 µM (inactive), the GI50 [26] was 58.2 µM (inactive) and the GI50 [27] was > 10 µM (inactive). The GI50 [28] was 61.1 µM (inactive), the GI50 [29] was > 100 µM (inactive) and the GI50 [30] was 32.1 µM (inactive). The GI50 [31] was 22.7 µM (inactive), the GI50 [32] was > 100 µM (inactive) and the GI50 [33] was 69.8 µM (inactive). For the same molecule, the GI50 [34] was 17.3 µM (inactive), the GI50 [35] was 40.9 µM (inactive) and the GI50 [36] was 23 µM (inactive). For the same molecule, the GI50 [37] was 20.1 µM (inactive), the GI50 [38] was 71.4 µM (inactive) and the GI50 [39] was 39.3 µM (inactive). For the same molecule, the GI50 [40] was 13.4 µM (inactive), the GI50 [41] was 61.2 µM (inactive) and the GI50 [42] was 54.7 µM (inactive). The GI50 [43] was 65.2 µM (inactive), the GI50 [44] was 8.83 µM (inactive) and the GI50 [45] was 52.2 µM (inactive). For the same molecule, the GI50 [46] was 62.5 µM (inactive), the GI50 [47] was 44.9 µM (inactive) and the GI50 [48] was 37.1 µM (inactive). For the same molecule, the GI50 [49] was 42.3 µM (inactive), the GI50 [50] was 26 µM (inactive) and the GI50 [51] was 66.8 µM (inactive).

In the case of `C/C=C1\CC(C(=O)OCC)CCCCCCC1=O` (centres undefined), the GI50 [1] is reported as > 100 µM (inactive), the GI50 [52] is reported as > 100 µM (inactive) and the GI50 [2] is reported as > 100 µM (inactive). The GI50 [3] was > 100 µM (inactive), the GI50 [4] was > 100 µM (inactive) and the GI50 [5] was > 100 µM (inactive). For the same molecule, the GI50 [6] was 19.1 µM (inactive), the GI50 [7] was > 100 µM (inactive) and the GI50 [8] was > 100 µM (inactive). For the same molecule, the GI50 [9] was > 100 µM (inactive), the GI50 [10] was > 100 µM (inactive) and the GI50 [11] was > 100 µM. The GI50 [12] was 51.1 µM (inactive), the GI50 [13] was > 100 µM (inactive) and the GI50 [53] was > 100 µM (inactive). The GI50 [14] was > 100 µM (inactive), the GI50 [15] was > 100 µM (inactive) and the GI50 [17] was > 100 µM (inactive). For the same molecule, the GI50 [18] was > 100 µM (inactive), the GI50 [19] was > 100 µM (inactive) and the GI50 [20] was > 100 µM (inactive). The GI50 [21] was > 100 µM (inactive), the GI50 [22] was > 100 µM (inactive) and the GI50 [23] was > 100 µM (inactive). The GI50 [24] was > 100 µM (inactive), the GI50 [25] was > 100 µM (inactive) and the GI50 [54] was > 100 µM (inactive). For the same molecule, the GI50 [26] was > 100 µM (inactive), the GI50 [28] was 99.8 µM (inactive) and the GI50 [29] was > 100 µM (inactive). For the same molecule, the GI50 [31] was > 100 µM (inactive), the GI50 [32] was > 100 µM (inactive) and the GI50 [33] was > 100 µM (inactive). For the same molecule, the GI50 [34] was > 100 µM (inactive), the GI50 [36] was > 100 µM (inactive) and the GI50 [37] was > 100 µM (inactive). The GI50 [38] was > 100 µM (inactive), the GI50 [55] was > 100 µM (inactive) and the GI50 [39] was > 100 µM (inactive). For the same molecule, the GI50 [56] was > 100 µM (inactive), the GI50 [40] was > 100 µM (inactive) and the GI50 [41] was > 100 µM (inactive). The GI50 [42] was > 100 µM (inactive), the GI50 [43] was > 100 µM (inactive) and the GI50 [44] was 69 µM (inactive). For the same molecule, the GI50 [57] was > 100 µM (inactive), the GI50 [46] was > 100 µM (inactive) and the GI50 [47] was > 100 µM (inactive). The GI50 [48] was > 100 µM (inactive), the GI50 [49] was > 100 µM (inactive) and the GI50 [50] was 59.2 µM (inactive). The GI50 [51] was > 100 µM (inactive).

With `COCN1C(=O)[C@@H]2CCCN2C(=O)c2cc(OC)c(Cc3ccccc3)cc21` the GI50 [1] was > 100 µM (inactive), the GI50 [52] was > 100 µM (inactive) and the GI50 [2] was 83.6 µM (inactive). The GI50 [3] was > 100 µM (inactive), the GI50 [4] was 81.8 µM (inactive) and the GI50 [5] was > 100 µM (inactive). The GI50 [8] was > 100 µM (inactive), the GI50 [9] was > 100 µM (inactive) and the GI50 [10] was 62.4 µM (inactive). For the same molecule, the GI50 [11] was > 100 µM, the GI50 [13] was > 100 µM (inactive) and the GI50 [53] was 93.3 µM (inactive). For the same molecule, the GI50 [14] was > 100 µM (inactive), the GI50 [15] was 62.7 µM (inactive) and the GI50 [17] was > 100 µM (inactive). The GI50 [18] was > 100 µM (inactive), the GI50 [19] was > 100 µM (inactive) and the GI50 [20] was 61.5 µM (inactive). For the same molecule, the GI50 [21] was 49.5 µM (inactive), the GI50 [22] was 70.1 µM (inactive) and the GI50 [23] was > 100 µM (inactive). For the same molecule, the GI50 [25] was > 100 µM (inactive), the GI50 [26] was > 100 µM (inactive) and the GI50 [28] was 83.9 µM (inactive). The GI50 [29] was > 100 µM (inactive), the GI50 [31] was 43.7 µM (inactive) and the GI50 [32] was > 100 µM (inactive). The GI50 [33] was > 100 µM (inactive), the GI50 [34] was 74.5 µM (inactive) and the GI50 [36] was 34.3 µM (inactive). For the same molecule, the GI50 [37] was > 100 µM (inactive), the GI50 [38] was > 100 µM (inactive) and the GI50 [55] was > 100 µM (inactive). For the same molecule, the GI50 [39] was > 100 µM (inactive), the GI50 [56] was > 100 µM (inactive) and the GI50 [41] was > 100 µM (inactive). For the same molecule, the GI50 [42] was > 100 µM (inactive), the GI50 [43] was > 100 µM (inactive) and the GI50 [44] was 60.4 µM (inactive). For the same molecule, the GI50 [57] was > 100 µM (inactive), the GI50 [46] was 43.3 µM (inactive) and the GI50 [47] was > 100 µM (inactive). The GI50 [48] was 94.6 µM (inactive), the GI50 [49] was > 100 µM (inactive) and the GI50 [50] was > 100 µM (inactive). For the same molecule, the GI50 [51] was 57 µM (inactive).
